Data taken from US11739087B2, “Inhibiting (α-v)(β-6) integrin” (Morphic Therapeutic, Inc., priority 2018, dated 2023).

Experiments:
[1] = system: Madin-Darby Canine Kidney (MDCK) cells; assay: MDCK permeability assay, wild type MDCK cells with no inhibitor (A→B); assay type: in vitro ADME; conditions: no Pgp inhibitor, apical to basolateral
Method: (§1) Compounds were tested for permeability in an MDCK permeability assay. This assay measures the ability of compounds to cross a layer of Madin-Darby Canine Kidney (MDCK) cells from the apical to basolateral side (A→B). This measurement is predictive of the ability of compounds to be absorbed in the gut following oral dosing, an essential characteristic of an orally administered small molecule integrin inhibitor drug.
(§2) The assay is run in two formats. One uses wild type MDCK cells with no inhibitor. This method works well in determining the passive permeability of compounds with low efflux by P-glyocprotein (Pgp), and was used to assess permeability of a Reference Compound having the chemical formula shown below.
(§3) Cell Culture and Maintenance: • Cell stock cultures (MDCK or MDCK MDR1) are maintained in MEM+10% FBS+1% NEAA, grown in 75 cm^2 tissue culture treated flasks and split (passed) 2 times weekly to maintain desired confluence. • For maintenance passage: trypsinized cells are routinely distributed into new flasks at a standard passage ratio of 1:20.
(§4) Seeding assay plates: MDCK assay plates are seeded with MDCK or MDCK MCR1 cells 3-4 days prior to running the assay. 24-well plates are seeded at a cell density of 0.88×10^5/well in a 400 μL apical chamber volume (2.2×10^5/mL) with a […] volume of growth medium to the 24-well basal chamber. […]

[2] = as above; assay type: in vitro ADME, Canine; conditions: dog, no Pgp inhibitor, apical to basolateral
Method: as §1, §2, §3, §4

- MDCK (A −> B) [1]: less than 0.23
- Papp A→B at 90 min, 5 μM [2]: < 0.23 ×10⁻⁶ cm/s
SMILES: O=C(O)CN1CCC(C(=O)N2CCC(c3ccc4c(n3)NCCC4)CC2)CC1 [Reference Compound]
